Earlier results as cited in patent publication US20060057203A1 (priority 2002, published 2006).

solubility in water: practically insoluble
SMILES: NC(=O)N1c2ccccc2CC(=O)c2ccccc21 [oxcarbazepine]
